In patent publication US20090253616A1, “COMBINATION THERAPY FOR THE TREATMENT OF CANCER” (ASTRAZENECA AB, priority 2006, published 2009):

Test system: MCF7 ADR cells
Assay: Activity in MDR cells: inhibition of phosphohistone H3 (phH3) in MCF7 ADR cells, with and without UIC2 mAb
Format: cell-based
Description: MCF7 ADR cells are known to highly express Pgp and other efflux transporters.
On day 1; 8×10^4 MCF7 ADR cells/ml were plated into a 96 well plate in 100 μl of media (DMEM, 10% FCS, 1% glutamine) and left to adhere at 37° C. overnight.
After 24 hours the cells were examined using the light microscope, and any cellular change in morphology was noted. The cells were then fixed with 100 μl of 3.7% formaldehyde for 30 minutes at room temperature and then washed in PBS using an automated plate washer. 1001 PBS 0.5% triton X-100 was then added for 5 minutes on a shaker. The plate was washed in 100 μl PBS and 50 μl of primary antibody (1:1000 rabbit anti-phosphohistone H3 in PBS 1% BSA 0.5% tween) was added. The plate was left for at least 1 hour at room temperature, on a shaker, after which the antibody was removed and the cells washed twice with PBS. In darkness, 50 μl of secondary antibody (1:10,000 Hoechst and 1:1000 Alexa Fluor 488 anti rabbit in PBS 1% BSA 0.5% tween) was added and the plate left for at least 1 hour at room temperature. The secondary antibody was removed and the plate washed twice with PBS. 200 μl PBS was then added and left for 10 minutes with shaking. The PBS was removed. 100 μl PBS was added and the plate sealed prior to analysis. […]
The plate was analysed on a Cellomics Arrayscan using the Target Activation algorithm. […]

## CCN(CCCOc1ccc2c(Nc3cc(CC(=O)Nc4cccc(F)c4)[nH]n3)ncnc2c1)CCOP(=O)(O)O [aurora kinase inhibitor, 2-[[3-({4-[(5-{2-[(3-fluorophenyl)amino]-2-oxoethyl}-1H-pyrazol-3-yl)amino]-quinazolin-7-yl}oxy)propyl](ethyl)amino]ethyl dihydrogen phosphate]
100 nM
  activity of aurora kinase inhibitor alone (inhibition of phH3): inactive
Efflux inhibited by UIC2 mAb 10 μg/ml
  Pgp mediated efflux of the compound (substrate of Pgp): Pgp mediated efflux
